Assay results as given in patent publication US8470878B2, “Heterocyclic sulfonamide derivatives” (Novartis AG, priority 2011, dated 2013).

Tests used:
[1] = Pharmacokinetics in athymic nude rats; format: in vivo; conditions: rat; for AUC / clearance / half-life / Vd / bioavailability / Cmax: athymic nude, plasma; for bioavailability: p.o. (3 mg/kg) vs i.v. (0.5 mg/kg), oral bioavailability; for PK-parameters compared to Example 1: one-way analysis of variance
Procedure: Pharmacokinetics in Athymic Nude Rats
For pharmacokinetics studies, the following parameters were calculated by non-compartmental regression analysis using Winnonlin 5.0 software (Pharsight, Mountain View, Calif., USA): half life in plasma (t1/2term); plasma clearance (CL); plasma maximum concentration (Cmax); plasma area-under-the-concentration-time-curve (AUC); and percent oral bioavailability (F %).

[2] = target: T1, BRAF-MEK-ERK cascade (Homo sapiens, UniProt Q02750); experiment: BRAF-MEK-ERK enzymatic cascade assay (TR-FRET); format: biochemical; conditions: mean±SEM, n=3; 10 point dose response, 45 minutes pre-incubation
T1 construct: human full length MEK1 kinase (Cat No. 14-706); purchased Upstate 14-557 (BRAF V599E); 14-706 (MEK1); 14-536 (ERK2)
Excerpt: A BRAF-MEK-ERK cascade assay is used to evaluate the effects of these compounds as inhibitors of the MAP kinase pathway. An enzymatic cascade assay is set up using recombinant human activated BRAF (V599E) kinase (Cat No. 14-557), human full length MEK1 kinase (Cat No. 14-706) and human full length active MAP Kinase 2/ERK2 (Cat No. 14-536) enzymes procured from Upstate. TR-FRET (Time resolved fluorescence resonance energy transfer) detection technology is used for the read out. […] The kinase reaction is stopped after 90 minutes with 10 mM EDTA and Lance detection mix (2 nM Eu-labeled phospho-serine/threonine antibody (Cat. No. AD0176-Perkin Elmer), 20 nM SA-APC (Cat No. CR130-100-Perkin Elmer) is added. The TR-FRET signal (Excitation at 340 nm, Emission at 615 nm and 665 nm) is read with 50 μs delay time on a Victor3 V fluorimeter. The data is calculated using the ratio of readings at 665 nm to 615 nm. The final concentration of DMSO is 2.5% in the assay. Compounds are screened at 10 μM concentration with pre-incubation of the enzymes in the presence of test compound for 45 minutes.
Each individual IC50 is determined using a 10 point dose response curve generated by GraphPad Prism software Version 4 (San Diego, Calif., USA) using non linear regression curve fit for sigmoidal dose response (variable slope).
These assays described above are fully detailed in Han, Shulin, et. al., Bioorganic & Medicinal Chemistry Letters (2005) 15, 5467-5473, and in Yeh, et. al., Clin Cancer Res (2007) 13 (5), 1576-1583.

[3] = system: DUSP6 expression in A375 tumors; experiment: A375 B-RafV600E human melanoma model in rat, PK-PD experiment (DUSP6 expression in tumor, real time quantitative PCR); format: in vivo; conditions: A375 tumor bearing rats, single oral dose, at 12 h and 24 h post dosing; two-way analysis of variance, p=0.003 and p=0.006
Procedure: A375 B-RafV600E Human Melanoma Model in Rat—PK-PD Experiment:
A375 cells were thawed using a 37° C. water bath. Cells were transferred to a tube containing 10 mls of warm DMEM medium. The tube was centrifuged for 5 minutes at 1200 rpm and the supernatant was discarded. The cell pellet was re-suspended and transferred to a 75 cm^2 tissue culture flask containing 15 mls of medium and cultured at 37° C. in a 5% CO2 incubator.
On the day of the cells implantation, cells were harvested (about 85% confluent), and re-suspended in cold medium containing 4 mg/ml of matrigel. This cell suspension was injected, subcutaneously, to athymic-nude pre-irradiated (500 rads) rats. Ten million cells (injection volume, 200 μL) were injected, subcutaneously, into the right flank region of the rats 24 hours after irradiation. Tumor bearing rats were randomized when the tumor volume reached approximately 500 mm^3 after about 15 to 20 days. Three rats were used for each time point.
Rats were treated orally with a single dose of 10, 30 and 60 mg/kg p.o. of Example 1A and 30 mg/kg of Example 1B. […] The mRNA expression levels of two direct target genes of MEK substrate P-Erk (DUSP6 and SPRY4) and an indirect target (BMF) can be measured. […] The tumor samples were pulverized, extracted and studied for expression of the […] DUSP6 using a real time quantitative PCR.

`O=S(=O)(Nc1c(Nc2ccc(I)cc2F)c(F)c(F)c2ccoc12)C1(CC(O)CO)CC1` (racemic) [Example 1, 1-(2,3-Dihydroxy-propyl)-cyclopropanesulfonic acid [4,5-difluoro-6-(2-fluoro-4-iodo-phenylamino)-benzofuran-7-yl]amide] showed an AUC ([1]; iv, i.v. (0.5 mg/kg)) of 70 ± 9 µg·h/mL, a clearance ([1]; iv, i.v. (0.5 mg/kg)) of 7.6 mL/h/kg and a half-life ([1]; iv, i.v. (0.5 mg/kg)) of 15.6 ± 1.7 h. It also gave a Vd ([1]; iv, i.v. (0.5 mg/kg)) of 0.17 ± 0.006 L/kg, a bioavailability [1] of 87% and an AUC ([1]; po, p.o. (3 mg/kg)) of 365 ± 45 µg·h/mL. For the same compound, the Cmax ([1]; po, p.o. (3 mg/kg)) was 9800 ± 700 ng/mL and the IC50 [2] was 2.1 ± 0.58 nM.
Compound `O=S(=O)(Nc1c(Nc2ccc(I)cc2F)c(F)c(F)c2ccoc12)C1(C[C@H](O)CO)CC1` [Example 1A, (S)—N-(4,5-difluoro-6-((2-fluoro-4-iodophenyl)amino)benzofuran-7-yl)-1-(2,3-dihydroxypropyl)cyclopropane-1-sulfonamide] has an AUC ([1]; iv, i.v. (0.5 mg/kg)) of 126 ± 3 µg·h/mL, a clearance ([1]; iv, i.v. (0.5 mg/kg)) of 4 mL/h/kg and a half-life ([1]; iv, i.v. (0.5 mg/kg)) of 19.9 ± 0.8 h. For the same compound, the Vd ([1]; iv, i.v. (0.5 mg/kg)) was 0.11 ± 0.006 L/kg, the bioavailability [1] was 132% and the AUC ([1]; po, p.o. (3 mg/kg)) was 994 ± 30 µg·h/mL. The Cmax ([1]; po, p.o. (3 mg/kg)) was 25600 ± 700 ng/mL, the “PK-parameters compared to Example 1” value [1] was “improved PK-parameters compared to Example 1” and the IC50 [2] was 2 ± 0.25 nM. The “lowering levels of DUSP-6 in tumor” value [3] was “significantly more effective than Example-1B”.
In the case of `O=S(=O)(Nc1c(Nc2ccc(I)cc2F)c(F)c(F)c2ccoc12)C1(C[C@@H](O)CO)CC1` [Example 1B, (R)—N-(4,5-difluoro-6-((2-fluoro-4-iodophenyl)amino)benzofuran-7-yl)-1-(2,3-dihydroxypropyl)cyclopropane-1-sulfonamide], the AUC ([1]; iv, i.v. (0.5 mg/kg)) is reported as 100 ± 14 µg·h/mL, the clearance ([1]; iv, i.v. (0.5 mg/kg)) is reported as 5.2 mL/h/kg and the half-life ([1]; iv, i.v. (0.5 mg/kg)) is reported as 17.1 ± 1.8 h. For the same compound, the Vd ([1]; iv, i.v. (0.5 mg/kg)) was 0.125 ± 0.006 L/kg, the bioavailability [1] was 126% and the AUC ([1]; po, p.o. (3 mg/kg)) was 752 ± 84 µg·h/mL. For the same compound, the Cmax ([1]; po, p.o. (3 mg/kg)) was 25200 ± 2700 ng/mL, the “PK-parameters compared to Example 1” value [1] was “improved PK-parameters compared to Example 1” and the IC50 [2] was 1.6 ± 0.1 nM.
